These results are taken from publication PMC8191317, “Structural and functional analysis of lignostilbene dioxygenases from Sphingobium sp. SYK-6” (The Journal of Biological Chemistry, 2021).

Each structure is given as a SMILES string.

The target of this assay is T1, LSD4 (Sphingobium sp. SYK-6, UniProt Z9AM74RXJ0).
T1 construct: residues 2-489 modelled; Fe2+ enzyme, Co-LSD4 for complexes
T1 sequence (Z9AM74RXJ0 1-489): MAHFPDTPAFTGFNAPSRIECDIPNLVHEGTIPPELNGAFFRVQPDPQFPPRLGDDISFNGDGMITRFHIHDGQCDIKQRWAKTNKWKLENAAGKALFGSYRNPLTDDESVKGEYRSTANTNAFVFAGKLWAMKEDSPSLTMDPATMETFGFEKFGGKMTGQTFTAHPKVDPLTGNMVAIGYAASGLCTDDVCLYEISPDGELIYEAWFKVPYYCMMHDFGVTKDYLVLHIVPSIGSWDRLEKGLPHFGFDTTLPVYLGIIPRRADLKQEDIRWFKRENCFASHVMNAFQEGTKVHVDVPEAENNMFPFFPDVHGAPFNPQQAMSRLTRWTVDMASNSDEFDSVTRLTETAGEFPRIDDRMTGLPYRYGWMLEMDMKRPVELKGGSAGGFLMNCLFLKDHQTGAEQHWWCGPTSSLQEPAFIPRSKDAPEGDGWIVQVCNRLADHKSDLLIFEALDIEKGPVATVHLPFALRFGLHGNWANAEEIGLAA
Description: O2 electrode (oxygraph) inhibition kinetics. The format is biochemical. The following applies: read-out: Kic.

As for `COc1cc(C=O)ccc1O` [vanillin], the Ki was 30 ± 8 µM.
